This passage reports melting point and IC50 results from patent US20220144853A1, “IMIDAZOLINE DERIVATIVES AS CXCR4 MODULATORS” (Université de Paris, priority 2019, published 2022).

Counter-ions that a name gives are not always drawn. Bounds are passed on as bounds.

Test system in one series: not given
Assay: not given
Conditions: not given
Usually melting point stands for the temperature, or range, at which the solid turns liquid. For `CC1(C)CN2C(CSC3=NCC(C)(C)N3)=CSC2=N1` (as salt: hydrochloride) [Example 2, 3-(((5,5-dimethyl-4,5-dihydro-1H-imidazol-2-yl)thio)methyl)-6,6-dimethyl-5,6-dihydroimidazo[2,1-b]thiazole dihydrochloride], the melting point is above 250 °C.
The compound `CC1(C)CN2C(CSC3=N[C@@H]4CCCC[C@H]4N3)=CSC2=N1` (as salt: hydrochloride) [Example 3, 3-((((3aR,7aR)-3a,4,5,6,7a-hexahydro-1H-benzo[d]imidazol-2-yl)thio)methyl)-6,6-dimethyl-5,6-dihydroimidazo[2,1-b]thiazole dihydrochloride] yielded a melting point of 65 to 75 °C.
Still for that read-out and setting: the result for `CC1(C)CN2C(CSC3=N[C@H]4CCCC[C@@H]4N3)=CSC2=N1` (as salt: hydrochloride) [Example 4, 3-((((3aS,7aS)-3a,4,5,6,7,7a-hexahydro-1H-benzo[d]imidazol-2-yl)thio)methyl)-6,6-dimethyl-5,6-dihydroimidazo[2,1-b]thiazole dihydrochloride] reads 167 to 175 °C.
Turning to `CC1(C)CN2C(CSC3=N[C@@H]4CCCC[C@@H]4N3)=CSC2=N1` (as salt: hydrochloride) [Example 5, 3-((((3R,7aS)-3a,4,5,6,7,7a-hexahydro-1H-benzo[d]imidazol-2-yl)thio)methyl)-6,6-dimethyl-5,6-dihydroimidazo[2,1-b]thiazole dihydrochloride], the melting point was above 250 °C.
On the same count and under the same terms, the result for `CC1(C)CN2C(CSC3=NCCN3)=CSC2=N1` (as salt: hydrochloride) [Example 8, 3-(((4,5-dihydro-1H-imidazol-2-yl)thio)methyl)-6,6-dimethyl-5,6-dihydroimidazo[2,1-b]thiazole dihydrochloride] reads 140 to 144 °C; that for `CN1CCN=C1SCC1=CSC2=NC(C)(C)CN12` (as salt: hydrochloride) [Example 11, 6,6-dimethyl-3-(((1-methyl-4,5-dihydro-1H-imidazol-2-yl)thio)methyl)-5,6-dihydroimidazo[2,1-b]thiazole dihydrochloride], 128 to 132 °C; that for `CC1(C)CN2C(CSC3=NCCCCN3)=CSC2=N1` (as salt: hydrochloride) [Example 12, 6,6-dimethyl-3-(((4,5,6,7-tetrahydro-1H-1,3-diazepin-2-yl)thio)methyl)-5,6-dihydroimidazo[2,1-b]thiazole dihydrochloride], above 250 °C.
Same read-out and setting: the result for `CCCCC1CN=C(SCC2=CSC3=NC(C)(C)CN23)N1` (stereo not shown) (as salt: hydrochloride) [Example 13, 3-(((5-butyl-4,5-dihydro-1H-imidazol-2-yl)thio)methyl)-6,6-dimethyl-5,6-dihydroimidazo[2,1-b]thiazole dihydrochloride] reads 95 to 104 °C.
On the same count and under the same terms, the same measure for `CC1(C)CN=C(SCC2=CSC3=NCCCN23)N1` (as salt: hydrochloride) [Example 14, 3-(((5,5-dimethyl-4,5-dihydro-1H-imidazol-2-yl)thio)methyl)-6,7-dihydro-5H-thiazolo[3,2-a]pyrimidine dihydrochloride]: 242 to 245 °C.
Take `CC1(C)CN=C(SCC2=CSC3=NCCCCN23)N1` (as salt: hydrochloride) [Example 15, 3-(((5,5-dimethyl-4,5-dihydro-1H-imidazol-2-yl)thio)methyl)-5,6,7,8-tetrahydrothiazolo[3,2-a][1,3]diazepine dihydrochloride]: the melting point fell in the range of 244 to 247 °C.
`CC1(C)CN2C(CSC3=NC(C)(C)C(C)(C)N3)=CSC2=N1` (as salt: hydrochloride) [Example 16, 6,6-dimethyl-3-(((4,4,5,5-tetramethyl-4,5-dihydro-1H-imidazol-2-yl)thio)methyl)-5,6-dihydroimidazo[2,1-b]thiazole dihydrochloride] showed a melting point of 185 to 205 °C.
Same read-out and setting: the result for `CC1(C)CN2C(CSC3=NCC(Cc4ccccc4)N3)=CSC2=N1` (stereo not shown) (as salt: hydrochloride) [Example 17, 3-(((5-benzyl-4,5-dihydro-1H-imidazol-2-yl)thio)methyl)-6,6-dimethyl-5,6-dihydroimidazo[2,1-b]thiazole dihydrochloride] reads 83 to 103 °C; that for `CC1(C)CN=C(SCC2=CSC3=NC(Cc4ccccc4)CN23)N1` (stereo not shown) (as salt: hydrochloride) [Example 18, 6-benzyl-3-(((5,5-dimethyl-4,5-dihydro-1H-imidazol-2-yl)thio)methyl)-5,6-dihydroimidazo[2,1-b]thiazole dihydrochloride], 63 to 74 °C; that for `CCCCC1CN2C(CSC3=NCC(C)(C)N3)=CSC2=N1` (stereo not shown) (as salt: hydrochloride) [Example 19, 6-butyl-3-(((4,4-dimethyl-4,5-dihydro-1H-imidazol-2-yl)thio)methyl)-5,6-dihydroinidazo[2,1-b]thiazole dihydrochloride], 210 to 218 °C.
In the case of `CC1(C)CN=C(SCC2=CSC3=NC(C)(C)C(C)(C)N23)N1` (as salt: hydrochloride) [Example 20, 3-(((5,5-dimethyl-4,5-dihydro-1H-imidazol-2-yl)thio)methyl)-5,5,6,6-tetramethyl-5,6-dihydroimidazo[2,1-b]thiazole dihydrochloride], the melting point lay in the range of 140 to 160 °C.
Same read-out and setting: the same measure for `CC1(C)CN=C(SCC2=CSC3=NCCN23)N1` (as salt: hydrochloride) [Example 21, 3-(((5,5-dimethyl-4,5-dihydro-1H-imidazol-2-yl)thio)methyl)-5,6-dihydroimidazo[2,1-b]thiazole dihydrochloride]: 220 to 230 °C; for `CC1(C)CN2C(CSC3=N[C@@H]4CCC[C@@H](C4)N3)=CSC2=N1` (as salt: hydrochloride) [Example 22, 3-((((1R,5S)-2,4-diazabicyclo[3.3.1]non-2-en-3-yl)thio)methyl)-6,6-dimethyl-5,6-dihydroimidazo[2,1-b]thiazole dihydrochloride]: above 250 °C; for `CC1(C)CN2C(CSC3=N[C@H]4COC[C@H]4N3)=CSC2=N1` (as salt: hydrochloride) [Example 25, (3aR,6aS)-2-(((6,6-dimethyl-5,6-dihydroinidazo[2,1-b]thiazol-3-yl)methyl)thio)-3a,4,6,6a-tetrahydro-1H-furo[3,4-d]imidazole dihydrochloride]: above 250 °C.
`C1=C(CSC2=NCCN2)N2CCCN=C2S1` (as salt: hydrochloride) [Example 26, 3-(((4,5-dihydro-1H-imidazol-2-yl)thio)methyl)-6,7-dihydro-5H-thiazolo[3,2-a]pyrimidine dihydrochloride] had a melting point above 250 °C.
Same read-out and setting: the result for `CC1(C)CN=C(SCC2=CSC3=NC(C)(C)CN23)NC1` (as salt: hydrochloride) [Example 28, 3-(((5,5-dimethyl-1,4,5,6-tetrahydropyrimidin-2-yl)thio)methyl)-6,6-dimethyl-5,6-dihydroimidazo[2,1-b]thiazole dihydrochloride] reads above 250 °C.
Still for that read-out and setting: the result for `C1=C(CSC2=NCCCN2)N2CCCN=C2S1` (as salt: hydrochloride) [Example 29, 3-(((1,4,5,6-tetrahydropyrimidin-2-yl)thio)methyl)-6,7-dihydro-5H-thiazolo[3,2-a]pyrimidine dihydrochloride] reads above 250 °C; that for `CCCCC1CN=C(SCC2=CSC3=NCCN23)N1` (stereo not shown) (as salt: hydrochloride) [Example 30, 3-(((5-butyl-4,5-dihydro-1H-imidazol-2-yl)thio)methyl)-5,6-dihydroimidazo[2,1-b]thiazole dihydrochloride], 176 to 178 °C.
`CC1(C)CN=C2SC=C(CSC3=NCC(C)(C)N3)N2C1` (as salt: hydrochloride) [Example 34, 3-(((5,5-dimethyl-4,5-dihydro-1H-imidazol-2-yl)thio)methyl)-6,6-dimethyl-6,7-dihydro-5H-thiazolo[3,2-a]pyrimidine dihydrochloride] came in with a melting point of 169 to 175 °C.
`C1=C(CSC2=NCCCN2)N2CCN=C2S1` (as salt: hydrochloride) [Example 35, 3-(((1,4,5,6-tetrahydropyrimidin-2-yl)thio)methyl)-5,6-dihydroimidazo[2,1-b]thiazole dihydrochloride] returned a melting point of 100 to 102 °C.

The test system of another series is IFN production by activated PBMCs. Put plainly: IFN production by R848-activated PBMCs from healthy donors, twINNE reporter cell line. Type of series: cell-based, human. The conditions noted are these: Homo sapiens, PBMC, means of two results over 2 healthy donors, R848 5 μg/mL, IT1t: mean over all experiments, read-out: IC50 of anti-inflammatory activity (IFN production). The procedure: 2) The blood from healthy donors was also obtained from “Etablissement Français du Sang” (convention #19/EFS/029), Paris, France.
In vitro experiments were performed using human peripheral blood mononuclear cells (PBMCs) isolated by density centrifugation from peripheral blood leukocyte separation medium, lymphoprep (Stemcell Technologies).
PBMCs were cultured in RPMI 1640 (Sigma-Aldrich, MO, USA) containing 10% heat-inactivated fetal bovine serum (Sigma-Aldrich, MO, USA) at 37° C./5% CO2.
2) The PBMCs used herein were prepared as described in part A “immune cells preparation”, section 2) above. PBMCs were seeded at 4.10^6/mL. […] Cells were then stimulated with the TLR7/8 agonist resiquimod—R848 (Sigma-Aldrich, MO, USA) at 5 μg/mL.
2) To quantify the secretion of functional IFN, a biological assay based on a stable cell line where luciferase reporter gene is controlled by five Interferon-Stimulated Response Elements (twINNE cell line) was used. It is important to note that the twINNE cell line is the same as the above mentioned STING-37 cell line but with constitutively expressed nanoluciferase. First, supernatants of R848-stimulated PBMCs (see part B, section 2) above) were harvested after 24 h of stimulation and frozen at −20° C. for storage. Then, supernatants were dispensed in culture wells of a 96-well plate containing 35.103 twINNE cells per well in Dulbecco's Modified Eagle's Medium supplemented with 10% Foetal Bovine Serum, 100 U/mL Penicillin and 100 μg/mL Streptomycin (1% Pen-Strep) and 1 mM glutamine (Sigma-Aldrich, MO, USA) at 37° C./5% […]. After 24 h of culture, luciferase activity was determined by adding 60 μL of Bright-Go reagents (Promega, Wisconsin, USA) to culture wells and measuring bioluminescence with EnSpire Multimode Plate Reader (PerkinElmer, Massachusetts, USA). When stated, for IC50 calculation, dose-response curves fitted using the nonlin fit (variable slope) analysis in GraphPad Prism software (GraphPad Software, California, USA).
In general, IC50 refers to the concentration that gives 50% inhibition. For the compound `CC1(C)CN2C(=N1)SCC2SC1=NCC(C)(C)N1` (stereo not shown) [Example 70, 3-((5,5-dimethyl-4,5-dihydro-1H-imidazol-2-yl)thio)-6,6-dimethyl-2,3,5,6-tetrahydroimidazo[2,1-b]thiazole dihydrochloride], the IC50 is at least 31 µM.
